The values below come from US5859007A, “CCK or gastrin modulating benzo [b][1,4] diazepines derivatives” (Glaxo Wellcome Inc., priority 1994, dated 1999).

This experiment has as its system isolated guinea pig gallbladder. Briefly: Functional activity in isolated guinea pig gallbladder preparation. The note with it: expressed as % CCK-induced maximal response; for activation at 1 µM / activation at 30 µM: Cavia porcellus; for activation at 1 µM: read-out: %Contraction (1 × 10^-6 M); for activation at 30 µM: 3 × 10^-5 M test compound, read-out: % Contraction (3 × 10^-5 M). The experiment is classed as cell-based. Here is the method: 3. GUINEA PIG GALL BLADDER ASSAY
Gallbladders are removed from guinea pigs sacrificed by cervical dislocation. The isolated gallbladders are cleaned of adherent connective tissue and cut into two rings from each animal (2-4 mm in length). The rings are subsequently suspended in organ chambers containing a physiological salt solution (118.4 mM NaCl, 4.7 mM KCl, 1.2 mM MgSO4, 2.5 mM CaCl2, 1.2 mM KH2 […], 25 mM NaHCO3, 11.1 mM dextrose). The bathing solution is maintained at 37° C. and aerated with 95% O2 /5% CO2. Tissues are connected via gold chains and stainless steel mounting wires to isometric force displacement transducers (Grass, Model FT03 D). Responses are then recorded on a polygraph (Grass, Model 7E).
Rings are gradually stretched (over a 120 min. period) to a basal resting tension of 1 gm which is maintained throughout the experiment. During the basal tension adjustment period, the rings are exposed to acetylcholine (10^-6 M) four times to verify tissue contractility. The tissues are then exposed to a submaximal dose of sulfated CCK-8 (Sigma, 3×10^-9 M). After obtaining a stable response, the tissues are washed out 3 times rapidly and every 5 to 10 minutes for 1 hour to reestablish a stable baseline.
Compounds are dissolved in dimethylsulfoxide ([…]) followed by a concentration-response curve to sulfated CCK-8 (10^-10 to 10^-6 M) in the presence of the highest dose of the test compound. As a final test, ACH (10 mM) is added to induce maximal contraction. A minimum of three determinations of activity are made for each test compound.

As to `CC(C)N(C(=O)CN1C(=O)C(C)(C(C)C(=O)c2ccccc2)C(=O)N(c2ccccc2)c2ccccc21)c1ccccc1` (stereo not drawn) [Example 8, N-Isopropyl-2-[3-methyl-2,4-dioxo-3-(1-phenyl-1-oxoprop-2-yl)-5-phenyl-2,3,4,5-tetrahydro-benzo[b][1,4]diazepin-1-yl]-N-phenyl acetamide], the “%Contraction (1 × 10^-6 M)” value (1 × 10^-6 M test compound) is 16%. As to `CC(C)N(C(=O)CN1C(=O)C(C)(CC(=O)Nc2ccccc2N)C(=O)N(c2ccccc2)c2ccccc21)c1ccccc1` (stereo not drawn) [Example 9, 2-[3-(2-Amino-phenylcarbamoylmethyl)-3-methyl-2,4-dioxo-5-phenyl-2,3,4,5-tetrahydro-benzo[b][1,4]diazepin-1-yl]-N-isopropyl-N-phenyl acetamide], where the note is “1 × 10^-6 M test compound”, the activation at 1 µM stood at 31%.

On to `CC(C)N(C(=O)CN1C(=O)C(C)(Cc2noc(-c3ccccc3)n2)C(=O)N(c2ccccc2)c2ccccc21)c1ccccc1` (stereo not drawn) [Example 10, N-Isopropyl-2-[3-methyl-2,4-dioxo-5-phenyl-3-(5-phenyl-[1,2,4]oxadiazol-3-ylmethyl)-2,3,4,5-tetrahydro-benzo[b][1,4]diazepin-1-yl]-N-phenyl acetamide], for which the activation at 1 µM (1 × 10^-6 M test compound) stood at 7%. For `CC(C)N(C(=O)CN1C(=O)C(C)(CC=Cc2ccccc2)C(=O)N(c2ccccc2)c2ccccc21)c1ccccc1` (stereo not drawn) [Example 11, N-Isopropyl-2-[3-methyl-2,4-dioxo-5-phenyl-3-(3-phenyl-allyl)-2,3,4,5-tetrahydro-benzo[b][1,4]diazepin-1-yl]-N-phenyl acetamide], the activation at 1 µM (1 × 10^-6 M test compound) turned out to be 10%. In the case of `CC(C)N(C(=O)CN1C(=O)C(C)(CCCc2ccccc2)C(=O)N(c2ccccc2)c2ccccc21)c1ccccc1` (stereo not drawn) [Example 12, N-Isopropyl-2-[3-methyl-2,4-dioxo-5-phenyl-3-(3-phenyl-propyl)-2,3,4,5-tetrahydro-benzo[b][1,4]diazepin-1-yl]-N-phenyl acetamide], where the note is “1 × 10^-6 M test compound”, the activation at 1 µM was determined as 19%. In the case of `CC(C)N(C(=O)CN1C(=O)C(C)(CC(N)=O)C(=O)N(c2ccccc2)c2ccccc21)c1ccccc1` (stereo not drawn) [Example 13, 2-[1-(Isopropyl-phenyl-carbamoylmethyl)-3-methyl-2,4-dioxo-5-phenyl-2,3,4,5-tetrahydro-1H-benzo[b][1,4]diazepine-3-yl]acetamide], the activation at 1 µM (1 × 10^-6 M test compound) worked out at 6%. On to `COc1ccc(N(C(=O)CN2C(=O)C(C)(CC(=O)Nc3ccccc3)C(=O)N(c3ccccc3)c3ccccc32)C(C)C)cc1` (stereo not drawn) [Example 14, N-Isopropyl-N-(4-methoxy-phenyl)-2-(3-methyl-2,4-dioxo-5-phenyl-3-phenylcarbamoylmethyl-2,3,4,5-tetrahydro-benzo[b][1,4]diazepin-1-yl) acetamide], for which the activation at 30 µM amounted to 64%. For `CC(C)N(C(=O)CN1C(=O)C(C)(CCCC(=O)Nc2ccccc2)C(=O)N(c2ccccc2)c2ccccc21)c1ccccc1` (stereo not drawn) [Example 15, N-Isopropyl-N-phenyl-2-(3-methyl-2,4-dioxo-5-phenyl-3-phenylcarbamoylpropyl-2,3,4,5-tetrahydro-benzo[b][1,4]diazepin-1-yl) acetamide], the activation at 1 µM (1 × 10^-6 M test compound) amounted to 54%. Consider `CCC1(CC(=O)Nc2ccccc2)C(=O)N(CC(=O)N(c2ccccc2)C(C)C)c2ccccc2N(c2ccccc2)C1=O` (stereo not drawn) [Example 16, 2-(3-Ethyl-2,4-dioxo-5-phenyl-3-phenylcarbamoylmethyl-2,3,4,5-tetrahydro-benzo[b][1,4]diazepin-1-yl)-N-isopropyl-N-phenyl-acetamide], for which the activation at 30 µM amounted to 54%.

For the compound `COc1ccc(N(C(=O)CN2C(=O)C(CC(=O)Nc3ccccc3)C(=O)N(c3ccccc3)c3ccccc32)C(C)C)cc1` (stereo not drawn) [Example 17, 2-(2,4-dioxo-5-phenyl-3-phenylcarbamoylmethyl-2,3,4,5-tetrahydro-benzo[b][1,4]diazepin-1-yl)-N-isopropyl-N-(4-methoxy-phenyl)-acetamide], the activation at 30 µM amounted to 55%. Further, the activation at 1 µM (1 × 10^-6 M test compound) turned out to be 48%. For the compound `CC(C)N(C(=O)CN1C(=O)C(C)(Cc2cc3ccccc3[nH]2)C(=O)N(c2ccccc2)c2ccccc21)c1ccccc1` (stereo not drawn) [Example 18, 2-[3-(1H-indol-2-ylmethyl)-3-methyl-2,4-dioxo-5-phenyl-2,3,4,5-tetrahydro-benzo[b][1,4]diazepin-1-yl]-N-isopropyl-N-phenyl acetamide], the activation at 30 µM was 3%.

Consider `CC(C)N(C(=O)CN1C(=O)C(C)(Cc2c[nH]c3ccccc23)C(=O)N(c2ccccc2)c2ccccc21)c1ccccc1` (stereo not drawn) [Example 19, 2-[3-(1H-indol-3-ylmethyl)-3-methyl-2,4-dioxo-5-phenyl-2,3,4,5-tetrahydro-benzo[b][1,4]diazepin-1-yl]-N-isopropyl-N-phenyl acetamide], for which the activation at 30 µM stood at 76%. For `COc1ccc(N(C(=O)CN2C(=O)C(Cc3cc4ccccc4[nH]3)(OC)C(=O)N(c3ccccc3)c3ccccc32)C(C)C)cc1` (stereo not drawn) [Example 20, 2-[3-(1H-indol-2-ylmethyl)-3-methoxy-2,4-dioxo-5-phenyl-2,3,4,5-tetrahydro-benzo[b][1,4]diazepin-1-yl]-N-isopropyl-N-(4-methoxyphenyl) acetamide], the activation at 30 µM was found to be 66%.

As to `COc1ccc(N(C(=O)CN2C(=O)C(CC(=O)Nc3ccccc3)(OC)C(=O)N(c3ccccc3)c3ccccc32)C(C)C)cc1` (stereo not drawn) [Example 21, N-Isopropyl-2-(3-methoxy-2,4-dioxo-5-phenyl-3-phenylcarbamoylmethyl-2,3,4,5-tetrahydro-benzo[b][1,4]diazepin-1-yl)-N-(4-methoxy-phenyl)-acetamide], the activation at 30 µM was 90%. Further, the activation at 1 µM (1 × 10^-6 M test compound) came to 80%. Regarding `COc1ccc(N(C(=O)CN2C(=O)C(Cc3c[nH]c4ccccc34)C(=O)N(c3ccccc3)c3ccccc32)C(C)C)cc1` (stereo not drawn) [Example 22, 2-[3-(1H-indol-3-ylmethyl)-2,4-dioxo-5-phenyl-2,3,4,5-tetrahydro-benzo[b][1,4]diazepin-1-yl]-N-isopropyl-N-(4-methoxy-phenyl) acetamide], the activation at 30 µM was 71%. Also, the activation at 1 µM (1 × 10^-6 M test compound) stood at 61%.

For the compound `COc1ccc(N(C(=O)CN2C(=O)C(C)(Cc3c[nH]c4ccccc34)C(=O)N(c3ccccc3)c3ccccc32)C(C)C)cc1` (stereo not drawn) [Example 23, 2-[3-(1H-indol-3-ylmethyl)-3-methyl-2,4-dioxo-5-phenyl-2,3,4,5-tetrahydro-benzo[b][1,4]diazepin-1-yl]-N-isopropyl-N-(4-methoxy-phenyl) acetamide], the activation at 30 µM worked out at 50%.

For the compound `COc1ccc(N(C(=O)CN2C(=O)C(C)(Cc3cn(C)c4ccccc34)C(=O)N(c3ccccc3)c3ccccc32)C(C)C)cc1` (stereo not drawn) [Example 24, 2-[3-(N-methyl-indol-3-ylmethyl)-3-methyl-2,4-dioxo-5-phenyl-2,3,4,5-tetrahydro-benzo[b][1,4]diazepin-1-yl]-N-isopropyl-N-(4-methoxy-phenyl) acetamide], the activation at 30 µM amounted to 34%. For `COc1ccc(N(C(=O)CN2C(=O)C(C)(CC(=O)Nc3cccc(F)c3)C(=O)N(c3ccccc3)c3ccccc32)C(C)C)cc1` (stereo not drawn) [Example 25, N-Isopropyl-N-(4-methoxy-phenyl)-2-[3-(3-fluoro-phenylcarbamoylmethyl)-3-methyl-2,4-dioxo-5-phenyl-2,3,4,5-tetrahydro-benzo[b][1,4]diazepin-1-yl]acetamide], the activation at 1 µM (1 × 10^-6 M test compound) is 88%.
